Measured values reported in ChEMBL document CHEMBL1201862, “PubChem BioAssay data set” (2004).
Several values for one entry are separate records, joined by “and”; a condition that tells them apart may be missing. Identical values can stand only once.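 In this assay, cells in 96-well plates receive the compound at five concentrations for 48 hours. Endpoints are linearly interpolated between the surrounding concentrations. GI50 is the concentration that inhibits growth by half.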 Activity calls are given as the source filed them. Cut-off read from the data, not from the text of the source: active = GI50 up to about 1.1 µM and inactive = higher.

Key:
Test in all cases: NCI anticancer screen, dose series, 48 h
BT-549 = tested on: BT-549
CAKI-1 = tested on: CAKI-1
DLD-1 = tested on: DLD-1
DMS-114 = tested on: DMS-114
DMS-273 = tested on: DMS-273
DU-145 = tested on: DU-145
HOP-18 = tested on: HOP-18
HOP-92 = tested on: HOP-92
Hs-578T = tested on: Hs-578T
KM-20L2 = tested on: KM-20L2
LXFL 529 = tested on: LXFL 529
M19-MEL = tested on: M19-MEL
MCF7 = tested on: MCF7
MDA-MB-231 = tested on: MDA-MB-231
MDA-MB-435 = tested on: MDA-MB-435
MDA-N = tested on: MDA-N
NCI-H522 = tested on: NCI-H522
NCI/ADR-RES = tested on: NCI/ADR-RES
PC-3 = tested on: PC-3
RPMI-8226 = tested on: RPMI-8226
RXF 393 = tested on: RXF 393
SNB-78 = tested on: SNB-78
T47D = tested on: T47D
UACC-257 = tested on: UACC-257
XF498 = tested on: XF498
786-0 = tested on: 786-0
A549 = tested on: A549
ACHN = tested on: ACHN
CCRF-CEM = tested on: CCRF-CEM
COLO 205 = tested on: COLO 205
EKVX = tested on: EKVX
HCT-116 = tested on: HCT-116
HCT-15 = tested on: HCT-15
HL-60 = tested on: HL-60
HOP-62 = tested on: HOP-62
HT-29 = tested on: HT-29
IGROV-1 = tested on: IGROV-1
K562 = tested on: K562
KM12 = tested on: KM12
LOX IMVI = tested on: LOX IMVI
M14 = tested on: M14
MOLT-4 = tested on: MOLT-4
NCI-H226 = tested on: NCI-H226
NCI-H23 = tested on: NCI-H23
NCI-H460 = tested on: NCI-H460
OVCAR-3 = tested on: OVCAR-3
OVCAR-4 = tested on: OVCAR-4
OVCAR-5 = tested on: OVCAR-5
OVCAR-8 = tested on: OVCAR-8
SF-268 = tested on: SF-268
SF-295 = tested on: SF-295
SF-539 = tested on: SF-539
SK-MEL-28 = tested on: SK-MEL-28
SK-MEL-2 = tested on: SK-MEL-2
SK-MEL-5 = tested on: SK-MEL-5
SK-OV-3 = tested on: SK-OV-3
SN12C = tested on: SN12C
SNB-19 = tested on: SNB-19
SNB-75 = tested on: SNB-75
SR = tested on: SR
SW-620 = tested on: SW-620
TK-10 = tested on: TK-10
U-251 = tested on: U-251
UACC-62 = tested on: UACC-62
UO-31 = tested on: UO-31
A498 = tested on: A498
HCC 2998 = tested on: HCC 2998
Malme-3M = tested on: Malme-3M
RXF 631 = tested on: RXF 631

## CN(C)CCNC(=O)c1cccc2cc([N+](=O)[O-])ccc12
BT-549
  GI50: 3.56 µM (inactive)
CAKI-1
  GI50: 0.519 µM (active)
DLD-1
  GI50: 0.217 µM (active)
DMS-114
  GI50: 0.217 µM (active)
DMS-273
  GI50: 0.123 µM (active)
DU-145
  GI50: 2.86 µM (inactive)
HOP-18
  GI50: 0.697 µM (active)
HOP-92
  GI50: 0.249 µM (active)
Hs-578T
  GI50: 1.46 µM (inactive)
KM-20L2
  GI50: 0.111 µM (active)
LXFL 529
  GI50: 0.271 µM (active)
M19-MEL
  GI50: 0.279 µM (active)
MCF7
  GI50: 0.608 µM (active)
MDA-MB-231
  GI50: 1.34 µM (inactive)
MDA-MB-435
  GI50: 2.23 µM (inactive)
MDA-N
  GI50: 1.98 µM (inactive)
NCI-H522
  GI50: 0.685 µM (active)
NCI/ADR-RES
  GI50: 1.39 µM (inactive)
PC-3
  GI50: 0.76 µM (active)
RPMI-8226
  GI50: 183 nM (active) and 262 nM (active)
RXF 393
  GI50: 0.0649 µM (active)
SNB-78
  GI50: 0.22 µM (active)
T47D
  GI50: 2.79 µM (inactive)
UACC-257
  GI50: 0.243 µM (active)
XF498
  GI50: 0.252 µM (active)

## N#C/C(=C/Sc1ccccc1)C(=O)O
786-0
  GI50: 22.6 µM (inactive)
A549
  GI50: 17.4 µM (inactive)
ACHN
  GI50: 27.6 µM (inactive)
CAKI-1
  GI50: 27.3 µM (inactive)
CCRF-CEM
  GI50: 9.25 µM (inactive)
COLO 205
  GI50: 20.9 µM (inactive)
DLD-1
  GI50: 36 µM (inactive)
DMS-114
  GI50: 15.1 µM (inactive)
DMS-273
  GI50: 22.2 µM (inactive)
EKVX
  GI50: 40.7 µM (inactive)
HCT-116
  GI50: 17.4 µM (inactive)
HCT-15
  GI50: 21.9 µM
HL-60
  GI50: 34.4 µM (inactive)
HOP-18
  GI50: > 100 µM (inactive)
HOP-62
  GI50: 43.9 µM (inactive)
HOP-92
  GI50: 57.7 µM (inactive)
HT-29
  GI50: 24.7 µM (inactive)
IGROV-1
  GI50: 17.9 µM (inactive)
K562
  GI50: 43.1 µM (inactive)
KM-20L2
  GI50: 30.1 µM (inactive)
KM12
  GI50: 19.1 µM (inactive)
LOX IMVI
  GI50: 10.6 µM (inactive)
LXFL 529
  GI50: 21.2 µM (inactive)
M14
  GI50: 22 µM (inactive)
M19-MEL
  GI50: 23.3 µM (inactive)
MOLT-4
  GI50: 14.9 µM (inactive)
NCI-H226
  GI50: 23.3 µM (inactive)
NCI-H23
  GI50: 45.1 µM (inactive)
NCI-H460
  GI50: 25.7 µM (inactive)
NCI-H522
  GI50: 10.9 µM (inactive)
OVCAR-3
  GI50: 27.1 µM (inactive)
OVCAR-4
  GI50: 40.7 µM (inactive)
OVCAR-5
  GI50: 29.6 µM (inactive)
OVCAR-8
  GI50: 17 µM (inactive)
RPMI-8226
  GI50: 24.5 µM (inactive)
RXF 393
  GI50: 14.3 µM (inactive)
SF-268
  GI50: 8.59 µM (inactive)
SF-295
  GI50: 37.3 µM (inactive)
SF-539
  GI50: 18.2 µM (inactive)
SK-MEL-28
  GI50: 24.5 µM (inactive)
SK-MEL-2
  GI50: 24.7 µM (inactive)
SK-MEL-5
  GI50: 29.6 µM (inactive)
SK-OV-3
  GI50: 59.4 µM (inactive)
SN12C
  GI50: 20 µM (inactive)
SNB-19
  GI50: 56.2 µM (inactive)
SNB-75
  GI50: 19.2 µM (inactive)
SNB-78
  GI50: 18 µM (inactive)
SR
  GI50: > 100 µM (inactive)
SW-620
  GI50: 41.2 µM (inactive)
TK-10
  GI50: 38.7 µM (inactive)
U-251
  GI50: 13.5 µM (inactive)
UACC-257
  GI50: 34.4 µM (inactive)
UACC-62
  GI50: 26 µM (inactive)
UO-31
  GI50: 12.6 µM (inactive)
XF498
  GI50: 41.8 µM (inactive)

## Cc1ccc(NC(=O)c2c(C)nc(=O)n3c2N(/N=C/c2ccc(Cl)cc2)CC3)cc1
786-0
  GI50: 17.8 µM (inactive)
A498
  GI50: 15.9 µM (inactive)
ACHN
  GI50: 16.3 µM (inactive)
CAKI-1
  GI50: 18.2 µM (inactive)
CCRF-CEM
  GI50: 26.9 µM (inactive)
COLO 205
  GI50: 21.7 µM (inactive)
DLD-1
  GI50: 16.6 µM (inactive)
DMS-114
  GI50: 16.5 µM (inactive)
DMS-273
  GI50: 19.2 µM (inactive)
HCC 2998
  GI50: 17.9 µM (inactive)
HCT-116
  GI50: 13.2 µM (inactive)
HL-60
  GI50: 23.1 µM (inactive)
HOP-62
  GI50: 18.7 µM (inactive)
HOP-92
  GI50: 20 µM (inactive)
IGROV-1
  GI50: 18.2 µM (inactive)
K562
  GI50: 26.7 µM (inactive)
LXFL 529
  GI50: 16.8 µM (inactive)
M14
  GI50: 17.1 µM (inactive)
M19-MEL
  GI50: 19.9 µM (inactive)
MOLT-4
  GI50: 23.8 µM (inactive)
Malme-3M
  GI50: 21.4 µM (inactive)
NCI-H226
  GI50: 16 µM (inactive)
NCI-H23
  GI50: 14.2 µM (inactive)
NCI-H522
  GI50: 10.4 µM (inactive)
OVCAR-4
  GI50: 14.4 µM (inactive)
RPMI-8226
  GI50: > 10 µM (inactive)
RXF 631
  GI50: 14.7 µM (inactive)
SF-268
  GI50: 12.7 µM (inactive)
SF-539
  GI50: 11.9 µM (inactive)
SK-MEL-28
  GI50: 16.3 µM (inactive)
SK-MEL-2
  GI50: 18.7 µM (inactive)
SK-OV-3
  GI50: 21.3 µM (inactive)
SN12C
  GI50: 14.7 µM (inactive)
SNB-75
  GI50: 18.8 µM (inactive)
SNB-78
  GI50: 19.8 µM (inactive)
SR
  GI50: 24.5 µM (inactive)
UACC-62
  GI50: 13.4 µM (inactive)
UO-31
  GI50: 11.7 µM (inactive)
XF498
  GI50: 15.6 µM (inactive)
